Experimental findings from patent US11548871B2, “Triazole carbamate pyridyl sulfonamides as LPA receptor antagonists and uses thereof” (Gilead Sciences, Inc., priority 2019, dated 2023) are described below.

The assay has as its target human LPAR1 (Homo sapiens, UniProt Q92633). The assay is described as follows: LPAR1 intracellular calcium mobilization assay (antagonist mode). For orientation: Calcium assays in cells follow changes in intracellular calcium, usually with a dye or a luminescent sensor.

human LPAR1, sequence (Q92633 whole entry): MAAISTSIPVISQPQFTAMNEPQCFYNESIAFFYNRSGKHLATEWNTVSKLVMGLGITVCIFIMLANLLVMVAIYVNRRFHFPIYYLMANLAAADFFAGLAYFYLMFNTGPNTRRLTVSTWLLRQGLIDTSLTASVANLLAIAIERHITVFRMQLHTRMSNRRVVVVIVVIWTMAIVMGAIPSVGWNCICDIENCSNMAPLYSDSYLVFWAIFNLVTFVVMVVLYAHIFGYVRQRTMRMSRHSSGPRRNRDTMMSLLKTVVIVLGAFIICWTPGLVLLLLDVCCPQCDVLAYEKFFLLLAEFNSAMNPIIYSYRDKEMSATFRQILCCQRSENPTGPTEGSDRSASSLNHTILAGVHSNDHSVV

For the compound `Cc1nc(-c2nnn(C)c2NC(=O)O[C@H](C)c2cncnc2C)ccc1NS(C)(=O)=O` [Compound 70, (R)-1-(4-methylpyrimidin-5-yl)ethyl (1-methyl-4-(6-methyl-5-(methylsulfonamido)pyridin-2-yl)-1H-1,2,3-triazol-5-yl)carbamate], the EC50 (usually the concentration needed to bring the measured effect to its halfway point) was found to be 1590 nM. In the case of `Cc1nc(-c2nnn(C)c2NC(=O)O[C@@H](c2cccc(F)c2)C(F)F)ccc1NS(C)(=O)=O` [Compound 58, (S)-2,2-difluoro-1-(3-fluorophenyl)ethyl (1-methyl-4-(6-methyl-5-(methylsulfonamido)pyridin-2-yl)-1H-1,2,3-triazol-5-yl)carbamate] it was 43.9 nM; in that of `Cn1nnc(-c2ccc(NS(C)(=O)=O)cn2)c1NC(=O)O[C@H](CF)c1ccccc1` [Compound 18, (S)-2-fluoro-1-phenylethyl (1-methyl-4-(5-(methylsulfonamido)pyridin-2-yl)-1H-1,2,3-triazol-5-yl)carbamate], 46.1 nM. The result for `Cc1nc(-c2nnn(C)c2NC(=O)O[C@H](CF)c2cccc(Cl)c2)ccc1NS(C)(=O)=O` [Compound 25, (S)-1-(3-chlorophenyl)-2-fluoroethyl (1-methyl-4-(6-methyl-5-(methylsulfonamido)pyridin-2-yl)-1H-1,2,3-triazol-5-yl)carbamate] reads 18.7 nM. The result for `C[C@@H](OC(=O)Nc1c(-c2ccc(NS(C)(=O)=O)cn2)nnn1C)c1cc(F)ncc1F` [Compound 117, (R)-1-(2,5-difluoropyridin-4-yl)ethyl (1-methyl-4-(5-(methylsulfonamido)pyridin-2-yl)-1H-1,2,3-triazol-5-yl)carbamate] reads 218 nM; that for `CCc1nc(-c2nnn(C)c2NC(=O)O[C@H](C)c2cc(F)cnc2Cl)ccc1NS(C)(=O)=O` [Compound 147, (R)-1-(2-chloro-5-fluoropyridin-3-yl)ethyl (4-(6-ethyl-5-(methylsulfonamido)pyridin-2-yl)-1-methyl-1H-1,2,3-triazol-5-yl)carbamate], 127 nM; that for `Cc1nc(-c2nnn(C)c2NC(=O)OC(C)c2cnc(Cl)nc2Cl)ccc1NS(C)(=O)=O` (stereo not drawn) [Compound 133, 1-(2,4-dichloropyrimidin-5-yl)ethyl (1-methyl-4-(6-methyl-5-(methylsulfonamido)pyridin-2-yl)-1H-1,2,3-triazol-5-yl)carbamate], 1700 nM. For `C=Cc1ncccc1[C@@H](C)OC(=O)Nc1c(-c2ccc(NS(C)(=O)=O)c(C)n2)nnn1C` [Compound 127, (R)-1-(2-vinylpyridin-3-yl)ethyl (1-methyl-4-(6-methyl-5-(methylsulfonamido)pyridin-2-yl)-1H-1,2,3-triazol-5-yl)carbamate], the EC50 was 1420 nM. For `Cc1nc(-c2nnn(C)c2NC(=O)OC(C2CCCCC2)C(F)(F)F)ccc1NS(C)(=O)=O` (stereo not drawn) [Compound 48, 1-cyclohexyl-2,2,2-trifluoroethyl (1-methyl-4-(6-methyl-5-(methylsulfonamido)pyridin-2-yl)-1H-1,2,3-triazol-5-yl)carbamate], the EC50 came out at 162 nM. Turning to `Cc1nc(-c2nnn(C)c2NC(=O)O[C@@H](c2ccccc2)C(F)(F)F)ccc1NS(C)(=O)=O` [Compound 94, (S)-2,2,2-trifluoro-1-phenylethyl(1-methyl-4-(6-methyl-5-(methylsulfonamido)pyridin-2-yl)-1H-1,2,3-triazol-5-yl)carbamate], the EC50 is 38.6 nM. The result for `Cc1nc(-c2nnn(C)c2NC(=O)O[C@H](C)c2cc(Cl)sc2Cl)ccc1NS(C)(=O)=O` [Compound 52, (R)-1-(2,5-dichlorothiophen-3-yl)ethyl (1-methyl-4-(6-methyl-5-(methylsulfonamido)pyridin-2-yl)-1H-1,2,3-triazol-5-yl)carbamate] reads 16.7 nM. In the case of `Cc1nc(-c2nnn(C)c2NC(=O)O[C@H](CF)c2cc(F)ccc2F)ccc1NS(C)(=O)=O` [Compound 45, (S)-1-(2,5-difluorophenyl)-2-fluoroethyl (1-methyl-4-(6-methyl-5-(methylsulfonamido)pyridin-2-yl)-1H-1,2,3-triazol-5-yl)carbamate], the EC50 was determined as 55.8 nM. Regarding `Cc1nc(-c2nnn(C)c2NC(=O)O[C@H](C)c2cscc2Cl)ccc1NS(C)(=O)=O` [Compound 138, (R)-1-(4-chlorothiophen-3-yl)ethyl (1-methyl-4-(6-methyl-5-(methylsulfonamido)pyridin-2-yl)-1H-1,2,3-triazol-5-yl)carbamate], the EC50 amounted to 23 nM. For the compound `COc1ncccc1[C@@H](C)OC(=O)Nc1c(-c2ccc(NS(C)(=O)=O)c(C)n2)nnn1C` [Compound 122, (R)-1-(2-methoxypyridin-3-yl)ethyl (1-methyl-4-(6-methyl-5-(methylsulfonamido)pyridin-2-yl)-1H-1,2,3-triazol-5-yl)carbamate], the EC50 amounted to 920 nM. As to `Cc1nc(-c2nnn(C)c2NC(=O)O[C@H](C)c2nc(Cl)sc2Cl)ccc1NS(C)(=O)=O` [Compound 139, (R)-1-(2,5-dichlorothiazol-4-yl)ethyl (1-methyl-4-(6-methyl-5-(methylsulfonamido)pyridin-2-yl)-1H-1,2,3-triazol-5-yl)carbamate], the EC50 came out at 163 nM. Turning to `Cc1nc(-c2nnn(C)c2NC(=O)O[C@H](C)c2ccc(F)nc2C)ccc1NS(C)(=O)=O` [Compound 143, (R)-1-(6-fluoro-2-methylpyridin-3-yl)ethyl (1-methyl-4-(6-methyl-5-(methylsulfonamido)pyridin-2-yl)-1H-1,2,3-triazol-5-yl)carbamate], the EC50 came to 330 nM. Regarding `CC(OC(=O)Nc1c(-c2ccc(NS(C)(=O)=O)cn2)nnn1C)c1c(F)cccc1Cl` (stereo not drawn) [Compound 120, 1-(2-chloro-6-fluorophenyl)ethyl (1-methyl-4-(5-(methylsulfonamido)pyridin-2-yl)-1H-1,2,3-triazol-5-yl)carbamate], the EC50 was 87 nM. `Cc1nc(-c2nnn(CC#N)c2NC(=O)O[C@H](C)c2ccccc2Cl)ccc1NS(C)(=O)=O` [Compound 96, (R)-1-(2-chlorophenyl)ethyl(1-(cyanomethyl)-4-(6-methyl-5-(methylsulfonamido)pyridin-2-yl)-1H-1,2,3-triazol-5-yl)carbamate]: the EC50 amounted to 18.1 nM. Regarding `Cc1nc(-c2nnn(C)c2NC(=O)O[C@H](C)c2cccnc2)ccc1NS(C)(=O)=O` [Compound 67, (R)-1-(pyridin-3-yl)ethyl (1-methyl-4-(6-methyl-5-(methylsulfonamido)pyridin-2-yl)-1H-1,2,3-triazol-5-yl)carbamate], the EC50 stood at 1630 nM. Regarding `Cc1nc(-c2nnn(C)c2NC(=O)O[C@H](C)c2ccccc2Cl)ccc1NS(=O)(=O)CC#N` [Compound 102, (R)-1-(2-chloro-phenyl)ethyl (4-(5-((cyano-methyl)sulfonamido)-6-methyl-pyridin-2-yl)-1-methyl-1H-1,2,3-triazol-5-yl)carbamate], the EC50 turned out to be 88.4 nM. Consider `Cc1nc(-c2nnn(C)c2NC(=O)O[C@H](CF)c2ccccc2)c(F)cc1NS(C)(=O)=O` [Compound 156, (S)-2-fluoro-1-phenylethyl (4-(3-fluoro-6-methyl-5-(methylsulfonamido)pyridin-2-yl)-1-methyl-1H-1,2,3-triazol-5-yl)carbamate], for which the EC50 came to 162 nM. Consider `Cc1nc(-c2nnn(C)c2NC(=O)O[C@H](C)c2cc(Cl)cnc2Cl)ccc1NS(C)(=O)=O` [Compound 142, (R)-1-(2,5-dichloropyridin-3-yl)ethyl (1-methyl-4-(6-methyl-5-(methylsulfonamido)pyridin-2-yl)-1H-1,2,3-triazol-5-yl)carbamate], for which the EC50 was found to be 142 nM. For the compound `CSc1ccccc1[C@@H](C)OC(=O)Nc1c(-c2ccc(NS(C)(=O)=O)c(C)n2)nnn1C` [Compound 55, (R)-1-(2-(methylthio)phenyl)ethyl (1-methyl-4-(6-methyl-5-(methylsulfonamido)pyridin-2-yl)-1H-1,2,3-triazol-5-yl)carbamate], the EC50 is 64.9 nM.

For `Cc1nc(-c2nnn(C)c2NC(=O)OC(C)c2cccnc2C(F)(F)F)ccc1NS(C)(=O)=O` (stereo not drawn) [Compound 85, 1-(2-(trifluoromethyl)pyridin-3-yl)ethyl (1-methyl-4-(6-methyl-5-(methylsulfonamido)pyridin-2-yl)-1H-1,2,3-triazol-5-yl)carbamate], the EC50 was 2470 nM. Consider `C[C@@H](OC(=O)Nc1c(-c2ccc(NS(C)(=O)=O)cn2)nnn1C)c1cccnc1Cl` [Compound 23, (R)-1-(2-chloropyridin-3-yl)ethyl (1-methyl-4-(5-(methylsulfonamido)pyridin-2-yl)-1H-1,2,3-triazol-5-yl)carbamate], for which the EC50 worked out at 36 nM. Turning to `Cc1nc(-c2nnn(C)c2NC(=O)O[C@H](C)c2cccnc2F)ccc1NS(C)(=O)=O` [Compound 128, (R)-1-(2-fluoropyridin-3-yl)ethyl (1-methyl-4-(6-methyl-5-(methylsulfonamido)pyridin-2-yl)-1H-1,2,3-triazol-5-yl)carbamate], the EC50 amounted to 265 nM. The result for `Cc1nc(-c2nnn(C)c2NC(=O)O[C@H](C)c2ccccc2Cl)ccc1NS(=O)(=O)C1CC1` [Compound 103, (R)-1-(2-chloro-phenyl)ethyl(4-(5-(cyclopropane-sulfonamido)-6-methylpyridin-2-yl)-1-methyl-1H-1,2,3-triazol-5-yl)carbamate] reads 56.3 nM; that for `Cc1nc(-c2nnn(C)c2NC(=O)OCc2ccccc2Cl)ccc1NS(C)(=O)=O` [Compound 40, 2-chlorobenzyl (1-methyl-4-(6-methyl-5-(methylsulfonamido)pyridin-2-yl)-1H-1,2,3-triazol-5-yl)carbamate], 87 nM; that for `CCCCC[C@H](OC(=O)Nc1c(-c2ccc(NS(C)(=O)=O)c(C)n2)nnn1C)C(F)(F)F` [Compound 47, (S)-1,1,1-trifluoroheptan-2-yl (1-methyl-4-(6-methyl-5-(methylsulfonamido)pyridin-2-yl)-1H-1,2,3-triazol-5-yl)carbamate], 132 nM. In the case of `C[C@@H](OC(=O)Nc1c(-c2ccc(NS(C)(=O)=O)cn2)nnn1C)c1cc(F)cnc1F` [Compound 114, (R)-1-(2,5-difluoropyridin-3-yl)ethyl (1-methyl-4-(5-(methylsulfonamido)pyridin-2-yl)-1H-1,2,3-triazol-5-yl)carbamate] it was 48.8 nM.
